Reference: paper PMC5526551, “New hydrazonoindolin-2-ones: Synthesis, exploration of the possible anti-proliferative mechanism of action and encapsulation into PLGA microspheres” (PLoS ONE, 2017)
“Also recorded” adds a separate entry of the source. Like-named read-outs stand apart in the source and are kept apart here.

Tests used:
MCF-10A = assay: Selectivity: growth inhibition in non-tumorigenic cell line; format: cell-based, human; conditions: 72 h, maximum 25 μM, read-out: IC50 Breast MCF-10A
Procedure: (§1) This assessment of the growth inhibitory activity of the compounds was tested in quadruplicate at a maximum concentration of 25 μM, followed by 10 serially diluted concentrations.
A549, IEC-6, MCF-10A and 3t3 cells were harvested from 90-95% confluent cultures in 10 cm dishes, and diluted in growth media recommended by the suppliers as follows: A549 cells were cultured in RPMI-1640 medium supplemented with 5% fetal bovine serum (FBS). IEC-6 cells were obtained from ATCC and cultured in Dulbecco’s modified Eagle’s medium (DMEM) supplemented with 10% FBS and 0.1 unit/mL recombinant insulin. Swiss 3t3 cells were obtained from ATCC and cultured in DMEM supplemented with 10% FBS. MCF-10Acells were obtained from ATCC and cultured in a mixture DMEM and F12 media supplemented with 5% fetal bovine serum (FBS), 20 ng/mL recombinant epidermal growth factor, 10 µg/mL insulin, 0.5 µg/mL hydrocortisone and 100 ng/mL cholera toxin. An appropriate concentration of cells was prepared to add 1,250 cells in a volume of 25 µL per well in tissue culture treated BD 384-well microplates, then incubated overnight at 37 °C.
Compound 7e and the positive control, sunitinib, were diluted to a concentration of 25 µM in DMSO. Concentrated dosing solutions (double the final concentration) were prepared by dilution of the DMSO stocks 1:500 in growth medium. Two-fold serial dilutions were then prepared in medium containing 0.2% DMSO to maintain a constant concentration of vehicle throughout the concentration range of the compound. […]
(§2) At the end of the treatment period, assay plates were allowed to cool to RT for 10 min prior to addition of 25 µL per well Promega CellTiterGlo reagent, followed by an additional 10 min incubation at RT. The resulting luminescence was quantitated using a Molecular Devices Spectramax Paradigm.Percent growth inhibition was calculated using equation (1). The potency of compounds was determined using the non-linear dose response algorithm (four-parameter logistic fit) with GraphPad Prism 5 software.

IEC-6 = assay: as above; format: cell-based; conditions: Rattus norvegicus, 72 h, maximum 25 μM, read-out: IC50 Intestine IEC-6
Procedure: as §1
A549, IEC-6, MCF-10A and 3t3 cells were harvested from 90-95% confluent cultures in 10 cm dishes, and diluted in growth media recommended by the suppliers as follows: A549 cells were cultured in RPMI-1640 medium supplemented with 5% fetal bovine serum (FBS). IEC-6 cells were obtained from ATCC and cultured in Dulbecco’s modified Eagle’s medium (DMEM) supplemented with 10% FBS and 0.1 unit/mL recombinant insulin. Swiss 3t3 cells were obtained from ATCC and cultured in DMEM supplemented with 10% FBS. […]
as §2

[1] = system: phosphorylated tyrosine (p-Tyr) in A549 cells; assay: Total cellular tyrosine phosphorylation after serum stimulation (immunofluorescent imaging); format: cell-based, human; conditions: for Change in p-Tyr levels: A549, serum stimulated; for IC50: A549, 10 min 10% fetal bovine serum, apparent IC50 of an increase for 7e, of a decrease for sunitinib, read-out: IC50 for change in total tyrosine phosphorylation (p-Tyr) levels
Procedure: Furthermore, compound 7e was analyzed for its effect on total cellular levels of phosphorylated tyrosine (p-Tyr) residues in human cancer cells. These studies were carried out using cells derived from lung adenocarcinoma (A549) and immunofluorescent imaging. The ability of the test compound 7e to affect acute serum stimulation of tyrosine phosphorylation was tested over a range of concentrations from less than 100 nM to 50 μM.
Cells were stimulated for 10 min with 10% fetal bovine serum. Phosphotyrosine levels were determined by indirect immunofluorescence followed by automated image acquisition and analysis.

A549 = assay: Cell cycle effects and total cell number (DAPI imaging); format: cell-based, human; conditions: for Cell cycle effects: A549; for IC50: Homo sapiens
Procedure: Compound 7e was analyzed for effects on various aspects of cell cycle progression in human cancer cells. These studies were carried out using cells derived from lung adenocarcinoma (A549). This follow-up assessment of activity tested compounds used immunofluorescent imaging of phosphorylated Rb protein and the total DNA content of each cell to determine the cell cycle phase. The ability of the test compounds to affect the cell cycle and Rb phosphorylation was tested over a range of concentrations from less than 100 nM to 50 μM.
Fig 5 Dose-dependent changes in cell cycle. Distribution of cells within the cell cycle as well as total cell numbers were quantitated by fluorescent staining of nuclear DNA with DAPI. Phosphorylated Rb protein was detected by indirect immunofluorescence followed by automated image acquisition and analysis. […] All IC50 values are given under one unlabelled substance, with the y-axis title of each plot written in front as the measure.
A549 cells were harvested from a 90% confluent 10 cm dish and diluted in growth medium. An appropriate concentration of cells were prepared to add 5,000 cells in a volume of 100 µL per well in tissue culture treated PerkinElmer optical bottom ViewPlate microplates, then incubated overnight at 37°C. The following day, compound 7e and the positive control, sunitinib, were diluted in DMSO to concentrations 1000-fold above the maximum tested concentration.
Concentrated dosing solutions of twice the final concentration were prepared by dilution of the DMSO stocks 1:500 in growth media. Three-fold dilutions of each dosing medium were then prepared in medium containing 0.2% DMSO to maintain a constant concentration of vehicle throughout the concentration range of each compound. Each of these was added in equal volume (100 µL) to each well on the assay plate, along with the vehicle control. One plate of cells was incubated with the compounds for a further 24 h, and a separate plate was incubated with the compounds for 48 h.
DAPI (1 µg/mL) fluorescent dye was incubated with fixed cells to quantitate double stranded DNA within each cell nucleus to determine cell cycle distribution. DNA content in each cell was determined by total DAPI fluorescent intensity by high throughput image acquisition and analysis. Fluorescent intensities were plotted on histograms with threshold intensity values assigned to each cell cycle classification using the MetaXpress cell cycle analysis program. Results from each treatment were reported as average cell number in each of nine fields, as well as the percentage of cells within each phase of the cell cycle. Each of these parameters was analyzed using GraphPad Prism, and, where appropriate, IC50 values have been reported.

[2] = A549, 24 h, read-out: IC50 for reductions in the total cell number
[3] = A549, 48 h, read-out: IC50 for reductions in the total cell number

Row | Compound | IC50 (MCF-10A) [µM] | IC50 (MCF-10A; Homo sapiens, MCF-10A) [µM] | IC50 (IEC-6) [µM] | Change in p-Tyr levels [1] | IC50 ([1]; Homo sapiens, A549, 10 min) [µM] | Cell cycle effects (A549) | IC50 (A549; A549, 24 h, read-out: IC50, % G1-Phase cells) [µM] | IC50 (A549; [2]) [µM] | IC50 (A549; A549, 48 h, read-out: IC50, % G1-Phase cells) [µM] | IC50 (A549; [3]) [µM] | IC50 [1] [µM]
1 | O=C1Nc2ccc(Br)cc2C1=NN=C1C(=O)N(Cc2ccccc2)c2ccccc21 [Compound 7e, 1-Benzyl-3-((5-bromo-2-oxoindolin-3-ylidene)hydrazono)indolin-2-one] | 1.75 | 1.76 | 3.72 | nearly two-fold | 3.8 | decreased the percentage of cells in the G1 phase of the cell cycle with a corresponding increase in the S-phase; also recorded: decrease in the percentage of cells in the G1 phase of the cell cycle with a corresponding increase in the S-phase; also recorded: G1 decreased, S-phase increased | 6.26 | 2.67 | 5.16 | 2.36 | 
2 | CCN(CC)CCNC(=O)c1c(C)[nH]c(/C=C2\C(=O)Nc3ccc(F)cc32)c1C [Sunitinib, sunitinib, reference compound] |  | 4.43 | 4.56 | modest dose-dependent decrease | 0.9 | G1 decreased and G2/M-phases increased |  | 12.5 |  | 3.48 | 0.91
